Experimental data: publication PMC9609173, “Preparation and Evaluation of [^18F]AlF-NOTA-NOC for PET Imaging of Neuroendocrine Tumors: Comparison to [^68Ga]Ga-DOTA/NOTA-NOC” (Molecules, 2022)
Where a SMILES comes first, the peptide text is derived from it. Bridges are numbered along the chain shown (N, C = ends). [ ]: non-standard residue; d: D form. The star is where a group is joined. DOTA = O=C(O)CN1CCN(CC(=O)O)CCN(CC(=O)*)CCN(CC(=O)O)CC1; 1Nal = N[C@@H](Cc1cccc2ccccc12)C(=O)O; Thr(ol) = C[C@@H](O)[C@H](N)CO

Assays:
[1] = system: AR42J xenograft; assay type: in vivo, mice
Protocol: All animal experiments were planned and performed following the national legislation by the Animal Experiments Inspectorate in Denmark. Male SCID (severe combined immunodeficiency) mice (bred in-house, age 9–12 weeks) had access to water and chow ad libitum. Anesthesia with approximately 2% isoflurane in 100% oxygen was applied and the mice were inoculated subcutaneously in the left shoulder with 1 × 10^6 AR42J cells 12–15 days before the experiment (tumor weight 364 ± 58 mg). For biodistribution, the AR42J xenografted mice were injected in the tail vein with [^68Ga]Ga-NOTA-NOC (50.2 ± 5 pmol, 627 ± 116 kBq, n = 4), [^68Ga]Ga-DOTA-NOC (42.5 ± 6 pmol, 509 ± 24 kBq, n = 3), or [^18F]AlF-NOTA-NOC (47.0 ± 10 pmol, 1017 ± 279 kBq, n = 3 for each time point). After 1 or 3 h, the mice were sacrificed and the organs were collected and weighed. The organ radioactivities were quantified in an Atomlab 950 well spectrometer which was cross calibrated to a high-purity germanium detector. The tissue uptake of injected radioactivity was determined as a percentage of the applied total injected activity per gram, %IA/g.
GraphPad Prism 6.07 was applied for statistical analysis and data fitting. One-way ANOVA and Bonferroni correction for multiple comparisons were applied for each organ. P values considered statistically significant were * p ≤ 0.05, ** p ≤ 0.01, *** p ≤ 0.001, and **** p ≤ 0.0001. The Student’s two-tailed t-test was applied for exploration statistics within a single organ-to-tumor comparison for one time point. Data are presented as the mean ± SEM.

[2] = Determination of LogP (1-octanol/Dulbecco's PBS partition); assay type: physicochemical
Protocol: Radiolabeled peptide (5 µL, 3–5 MBq) was added to Dulbecco’s PBS (495 µL) along with 1-Octanol (500 µL) in an Eppendorf tube. The tubes were vortexed for 5 min and centrifuged to separate phases. A volume of 10 µL of each phase was transferred to new Eppendorf tubes. The fractions were counted in an well counter (Atomlab 950) and LogP were calculated [[…]].

For `C[C@@H](O)[C@@H]1NC(=O)[C@H](CCCCN)NC(=O)[C@@H](Cc2c[nH]c3ccccc23)NC(=O)[C@H](Cc2cccc3ccccc23)NC(=O)[C@@H](NC(=O)[C@@H](Cc2ccccc2)NC(=O)CN2CCN(CC(=O)O)CCN(CC(=O)O)CCN(CC(=O)O)CC2)CSSC[C@@H](C(=O)N[C@H](CO)[C@@H](C)O)NC1=O` [[^68Ga]Ga-DOTA-NOC, metal not drawn, reference compound] ({DOTA}-[dF]C[1Nal][dW]KTC[Thr(ol)]; disulfide 2-7 (inferred)), the “tumor-to-blood ratio, 1 h p.i.” value ([1]; AR42J xenograft mice) was 35, the “tumor-to-liver ratio, 1 h p.i.” value ([1]; AR42J xenograft mice) was 3.7 and the “tumor uptake at 1 h p.i.” value ([1]; male SCID mice, subcutaneous AR42J xenograft, tail vein injection app. 45 pmol, n = 3-4, mean ± SEM) was 26.4 ± 10.8 % ID/g. For the same compound, the “partition coefficient, LogP” value [2] was −1.42.
